Assay results published in patent publication US8580957B2, “Thetrahydroquinolines derivatives as bromodomain inhibitors” (GlaxoSmithKline LLC, priority 2009, dated 2013).
Counter-ions that a name gives are not always drawn. Like-named read-outs stand apart in the source and are kept apart here.

Key:
[1] = test system: TNFα levels in LPS stimulated whole blood; assay: LPS Stimulated Whole Blood Measuring TNFα Levels Assay; assay type: cell-based; conditions: LPS 200 ng/ml, 24 hours, read-out: pIC50 (TNFα levels) (converted)
Description: LPS Stimulated Whole Blood Measuring TNFα Levels Assay
(§1) Activation of monocytic cells by agonists of toll-like receptors such as bacterial lipopolysaccharide (LPS) results in production of key inflammatory mediators including TNFα. Such pathways are widely considered to be central to the pathophysiology of a range of auto-immune and inflammatory disorders.
(§2) Compounds to be tested are diluted to give a range of appropriate concentrations and 1 ul of the dilution stocks is added to wells of a 96 plate. Following addition of whole blood (130 ul) the plates are incubated at 37 degrees (5% CO2) for 30 min before the addition of 10 ul of 2.8 ug/ml LPS, diluted in complete RPMI 1640 (final concentration=200 ng/ml), to give a total volume of 140 ul per well. After further incubation for 24 hours at 37 degrees, 140 ul of PBS are added to each well. The plates are sealed, shaken for 10 minutes and then centrifuged (2500 rpm×10 min). 100 ul of the supernatant are removed and TNFα levels assayed by immunoassay (typically by MesoScale Discovery technology) either immediately or following storage at −20 degrees. Dose response curves for each compound was generated from the data and an IC50 value was calculated.

[2] = test system: LPS induced IL-6 secretion from whole blood; assay: Measurement of LPS Induced IL-6 Secretion from Whole Blood; assay type: cell-based; conditions: LPS 200 ng/ml, 24 hours, read-out: pIC50 (IL-6 levels) (converted)
Description: Measurement of LPS Induced IL-6 Secretion from Whole Blood
as §1, with “IL-6.” for “TNFα.”
as §2, with “concentrations of which” for “concentrations and”, “the diluted” for “the dilution”, “to” for “to wells of”, “96 well” for “96”, “and IL-6” for “and TNFα”, “degrees. Concentration” for “degrees. Dose”

[3] = test system: Balb/c male mice given a lethal dose of LPS; assay: In Vivo Mouse Endotoxemia Model; conditions: 15 mg/kg LPS i.p.; compound 10 mg/kg intravenously 90 min later; summed across multiple repeat experiments
Source text: In Vivo Mouse Endotoxemia Model
High doses of Endotoxin (bacterial lipopolysaccharide) administered to animals produce a profound shock syndrome including a strong inflammatory response, dysregulation of cardiovascular function, organ failure and ultimately mortality. This pattern of response is very similar to human sepsis and septic shock, where the body's response to a significant bacterial infection can be similarly life threatening.
To test the compounds of the invention groups of eight Balb/c male mice were given a lethal dose of 15 mg/kg LPS by intraperitoneal injection. Ninety minutes later, animals were dosed intravenously with vehicle (20% cyclodextrin 1% ethanol in apyrogen water) or compound (10 mg/kg). The survival of animals was monitored at 4 days.
Numbers of animals surviving at 4 days (summed across multiple repeat experiments)

[4] = test system: Human cell lines (n=33 comprising 15 heme cell lines, 14 breast cell lines and 4 other cell lines); assay: Oncology Growth Assay (CellTiter-Glo); assay type: cell-based; conditions: 72 hours
Description: Human cell lines (n=33 comprising 15 heme cell lines, 14 breast cell lines and 4 other cell lines) were cultured in RPMI-1640 containing 10% fetal bovine serum, 1000 viable cells per well were plated in 384-well black flat bottom polystyrene plates (Greiner #781086) in 48 μl of culture media. All plates were placed at 5% CO2, 37° C. overnight. The following day one plate was harvested with CellTiter-Glo (CTG, Promega #G7573) for a time equal to 0 (T0) measurement and compound (20 point titration from 14.7 uM to […]) was added to the remaining plates. The final concentration of DMSO in all wells was 0.15%. Cells were incubated for 72 hours or the indicated time and each plate was developed with CellTiter-Glo reagent using a volume equivalent to the cell culture volume in the wells. Plates were shaken for approximately 2 minutes and chemiluminescent signal was read on the Analyst GT (Molecular Devices) or EnVision Plate Reader (Perkin Elmer).
Results were expressed as a percent of the TO and plotted against the compound concentration. The TO value was normalized to 100% and represents the number of cells at time of compound addition and the concentration response data were fit with a 4 parameter curve fit using XLfit software (model 205). The concentration that inhibited cell growth by 50% (gIC50) is the midpoint of the ‘growth window’ (between the TO and DMSO control). The Ymin−T0 value is determined by subtracting the T0 value (100%) from the Ymin value (%) determined from the fit of the concentration response curve. Values from the wells with no cells were subtracted from all samples for background correction.

SMILES	melting point [°C]	IC50 [1] [µM]	other results
CC(=O)N1c2ccc(-c3ccc(C#N)cc3)cc2[C@@H](Nc2ccc(F)cc2)C[C@H]1C (racemic) [Example 62, 4-{1-acetyl-4-[(4-fluorophenyl)amino]-2-methyl-1,2,3,4-tetrahydro-6-quinolinyl}benzonitrile]	140	–	–
CC(=O)N1c2ccc(-c3ccc(C(=O)N4CCOCC4)cc3)cc2C(Nc2ccc(Cl)cc2)CC1C (stereo not shown) [Example 109]	146	≤ 10	–
CC(=O)N1c2ccc(-c3ccc(C(=O)O)cc3)cc2[C@H](Nc2ccc(Cl)cc2)C[C@@H]1C [Example 6, 4-{(2S,4R)-1-acetyl-4-[(4-chlorophenyl)amino]-2-methyl-1,2,3,4-tetrahydro-6-quinolinyl}benzoic acid]	–	–	IC50 [2]: ≤ 10 µM; Animals surviving at 4 days (percent) [3]: 58%; Numbers of animals surviving at 4 days [3]: 14/24; IC50 ([4]; all 33 cell lines, read-out: gIC50 across all cell lines): 0.035 to 9.2 µM; IC50 ([4]; breast cell lines, read-out: gIC50 for breast cell lines): 0.04 to 9.2 µM; IC50 ([4]; heme cell lines, read-out: gIC50 for heme cell lines): 0.035 to 0.844 µM
CCN(c1ccccc1)[C@H]1C[C@@H](C)N(C(C)=O)c2ccc(-c3ccccc3)cc21 (stereo in doubt) [Example 87, 1-acetyl-N-ethyl-2-methyl-N,6-diphenyl-1,2,3,4-tetrahydro-4-quinolinamine]	121	≤ 10	–
CCNC(=O)c1ccc(-c2ccc3c(c2)[C@@H](Nc2ccc(Cl)cc2)C[C@@H](C)N3C(C)=O)cc1 (stereo in doubt) [Example 101, 4-{1-Acetyl-4-[(4-chlorophenyl)amino]-2-methyl-1,2,3,4-tetrahydro-6-quinolinyl}-N-ethylbenzamide]	134	–	–
CC(=O)N1c2ccc(-c3ccc(-c4nn[nH]n4)cc3)cc2[C@@H](Nc2ccc(Cl)cc2)C[C@H]1C (stereo in doubt) [Example 121, 1-Acetyl-N-(4-chlorophenyl)-2-methyl-6-[4-(1H-tetrazol-5-yl)phenyl]-1,2,3,4-tetrahydro-4-quinolinamine]	250	–	–
CCOC(=O)c1ccc(-c2ccc3c(c2)[C@@H](Nc2ccc(Cl)cc2)C[C@@H](C)N3C(C)=O)cc1 (stereo in doubt) [Example 119, Ethyl 4-{1-acetyl-4-[(4-chlorophenyl)amino]-2-methyl-1,2,3,4-tetrahydro-6-quinolinyl}benzoate]	114	–	–
COC(=O)c1ccc(-c2ccc3c(c2)C(Nc2ccc(C#N)cc2)CC(C)N3C(C)=O)cc1 (stereo not shown) [Example 82]	252	–	–

The next lines start with results.

melting point [°C]	IC50 [1] [µM]	SMILES	other results
–	≤ 10	CC(=O)N1c2ccc(-c3ccc(CN4CCCCC4)cc3)cc2[C@@H](Nc2ccc(F)cn2)C[C@H]1C (racemic) [Example 137, (cis)-1-Acetyl-N-(5-fluoro-2-pyridinyl)-2-methyl-6-[4-(1-piperidinylmethyl)phenyl]-1,2,3,4-tetrahydro-4-quinolinamine formate salt]	IC50 [2]: ≤ 10 µM
106	–	CC(=O)N1c2ccc(-c3ccc(CN4CCCCC4)cc3)cc2[C@@H](Nc2ccc(F)cc2)C[C@H]1C (racemic) [Example 11, 1-Acetyl-2-methyl-N-(4-fluorophenyl)-6-[4-(1-piperidinylmethyl)phenyl]-1,2,3,4-tetrahydro-4-quinolinamine]	–
–	≤ 10	CC(=O)N1c2ccc(-c3ccc(CN4CCCCC4)cc3)cc2[C@H](Nc2ccccc2)C[C@@H]1C [Example 164, (2S,4R)-1-Acetyl-2-methyl-N-phenyl-6-[4-(1-piperidinylmethyl)phenyl]-1,2,3,4-tetrahydro-4-quinolinamine]	IC50 [2]: ≤ 10 µM
90	–	CC(=O)N1c2ccc(-c3ccc(CN(C)C)cc3)cc2[C@@H](Nc2ccccc2)C[C@H]1C (racemic) [Example 35, 1-acetyl-6-{4-[(dimethylamino)methyl]phenyl}-2-methyl-N-phenyl-1,2,3,4-tetrahydro-4-quinolinamine]	–
–	≤ 10	CC[C@@H]1C[C@H](Nc2ccccc2)c2cc(-c3ccc(CN4CCCCC4)cc3)ccc2N1C(C)=O (relative stereo) [Example 163, (cis)-1-Acetyl-2-ethyl-N-phenyl-6-[4-(1-piperidinylmethyl)phenyl]-1,2,3,4-tetrahydro-4-quinolinamine formate salt]	–
